# Results published in PMC11233931, “Remodeling tumor‐associated macrophage for anti‐cancer effects by rational design of irreversible inhibition of mitogen‐activated protein kinase‐activated protein kinase 2” (MedComm, 2024).
# Experiments:
# Assay in all cases: Eurofins kinase selectivity profile against 380 other human recombinant kinases (Table S2)
# Format in all cases: biochemical
# [1] = target: T1, 380 human recombinant protein kinases (Homo sapiens, UniProt Q08881); details: Itk(h), read-out: Inhibition rate
# T1 construct: purchased Eurofins (Celle Lévescault)
# T1 sequence (Q08881 1-620): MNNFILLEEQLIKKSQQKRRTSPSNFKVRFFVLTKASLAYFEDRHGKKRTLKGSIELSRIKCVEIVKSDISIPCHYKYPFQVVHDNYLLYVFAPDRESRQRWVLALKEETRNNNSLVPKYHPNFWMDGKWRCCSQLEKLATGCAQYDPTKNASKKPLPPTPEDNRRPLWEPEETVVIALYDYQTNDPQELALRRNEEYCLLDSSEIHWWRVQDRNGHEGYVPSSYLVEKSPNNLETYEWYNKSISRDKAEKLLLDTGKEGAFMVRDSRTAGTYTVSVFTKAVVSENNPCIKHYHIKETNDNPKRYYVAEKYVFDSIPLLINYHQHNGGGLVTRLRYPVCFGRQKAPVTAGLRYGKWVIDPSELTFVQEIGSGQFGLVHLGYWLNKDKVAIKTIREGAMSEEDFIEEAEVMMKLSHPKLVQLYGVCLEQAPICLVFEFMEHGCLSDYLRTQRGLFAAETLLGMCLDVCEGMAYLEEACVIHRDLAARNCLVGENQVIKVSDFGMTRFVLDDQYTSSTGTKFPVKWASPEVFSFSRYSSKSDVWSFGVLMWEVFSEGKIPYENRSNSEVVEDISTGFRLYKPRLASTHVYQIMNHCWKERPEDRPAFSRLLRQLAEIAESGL
# Outline: (§1)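 Profiling against 380 human recombinant kinases carried out by Eurofins at various compound concentrations.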
# [2] = target: T2, 380 human recombinant protein kinases (Homo sapiens, UniProt Q92630); details: DYRK2(h), read-out: Inhibition rate
# T2 construct: purchased Eurofins (Celle Lévescault)
# T2 sequence (Q92630 1-601): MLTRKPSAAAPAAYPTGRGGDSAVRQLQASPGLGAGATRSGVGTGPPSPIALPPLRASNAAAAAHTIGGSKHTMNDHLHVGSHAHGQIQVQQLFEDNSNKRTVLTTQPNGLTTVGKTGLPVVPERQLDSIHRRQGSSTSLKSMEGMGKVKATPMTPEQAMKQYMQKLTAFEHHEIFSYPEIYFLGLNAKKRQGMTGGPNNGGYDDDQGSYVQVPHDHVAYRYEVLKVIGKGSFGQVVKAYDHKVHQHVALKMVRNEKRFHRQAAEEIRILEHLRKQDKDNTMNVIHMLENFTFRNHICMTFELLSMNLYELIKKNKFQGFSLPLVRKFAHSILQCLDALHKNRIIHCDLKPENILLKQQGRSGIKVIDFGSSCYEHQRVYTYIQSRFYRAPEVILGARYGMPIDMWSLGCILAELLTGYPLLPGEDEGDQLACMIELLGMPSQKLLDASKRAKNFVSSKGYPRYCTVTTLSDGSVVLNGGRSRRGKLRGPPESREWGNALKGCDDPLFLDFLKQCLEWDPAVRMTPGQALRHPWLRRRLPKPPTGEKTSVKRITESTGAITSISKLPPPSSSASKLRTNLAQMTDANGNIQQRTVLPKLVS
# Outline: as §1
# [3] = target: T3, 380 human recombinant protein kinases (Homo sapiens, UniProt Q99683); details: ASK1(h), read-out: Inhibition rate
# T3 construct: purchased Eurofins (Celle Lévescault)
# T3 sequence (Q99683 1-1374): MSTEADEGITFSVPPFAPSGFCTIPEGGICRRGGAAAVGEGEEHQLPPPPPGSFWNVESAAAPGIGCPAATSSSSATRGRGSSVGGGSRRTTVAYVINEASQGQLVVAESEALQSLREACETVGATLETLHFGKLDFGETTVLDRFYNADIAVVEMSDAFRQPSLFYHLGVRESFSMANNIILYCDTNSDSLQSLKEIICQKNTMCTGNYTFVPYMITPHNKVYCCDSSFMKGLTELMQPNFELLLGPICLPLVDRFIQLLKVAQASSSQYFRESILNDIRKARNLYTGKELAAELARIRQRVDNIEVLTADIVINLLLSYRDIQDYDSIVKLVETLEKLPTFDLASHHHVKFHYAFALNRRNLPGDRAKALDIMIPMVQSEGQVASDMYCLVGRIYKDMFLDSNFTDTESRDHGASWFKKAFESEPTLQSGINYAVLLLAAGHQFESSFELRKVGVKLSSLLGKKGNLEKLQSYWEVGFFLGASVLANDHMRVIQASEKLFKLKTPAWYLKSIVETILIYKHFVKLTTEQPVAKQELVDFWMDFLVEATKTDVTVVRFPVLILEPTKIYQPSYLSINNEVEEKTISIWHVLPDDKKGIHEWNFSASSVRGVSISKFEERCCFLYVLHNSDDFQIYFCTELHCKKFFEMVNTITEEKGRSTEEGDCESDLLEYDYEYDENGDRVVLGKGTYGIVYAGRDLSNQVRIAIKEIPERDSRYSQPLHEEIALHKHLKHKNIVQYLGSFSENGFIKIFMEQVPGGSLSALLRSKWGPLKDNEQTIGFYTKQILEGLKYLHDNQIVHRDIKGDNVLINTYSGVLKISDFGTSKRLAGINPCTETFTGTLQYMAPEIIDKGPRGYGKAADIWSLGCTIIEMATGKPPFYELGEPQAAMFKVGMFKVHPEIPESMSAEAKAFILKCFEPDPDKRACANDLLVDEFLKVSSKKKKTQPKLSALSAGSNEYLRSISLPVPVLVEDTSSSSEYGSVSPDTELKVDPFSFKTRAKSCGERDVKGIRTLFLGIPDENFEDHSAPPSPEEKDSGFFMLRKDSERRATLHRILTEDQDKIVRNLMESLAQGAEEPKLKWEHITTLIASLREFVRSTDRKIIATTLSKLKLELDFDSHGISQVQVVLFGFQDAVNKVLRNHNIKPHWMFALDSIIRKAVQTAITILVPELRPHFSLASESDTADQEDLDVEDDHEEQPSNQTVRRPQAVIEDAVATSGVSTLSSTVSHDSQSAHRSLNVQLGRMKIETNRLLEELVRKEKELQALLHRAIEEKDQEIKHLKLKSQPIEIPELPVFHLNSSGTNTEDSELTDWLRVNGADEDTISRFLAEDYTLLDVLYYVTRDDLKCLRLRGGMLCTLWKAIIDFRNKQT
# Outline: as §1
compound,measurement,setting,value
C=CC(=O)Nc1cc(-c2cc(-c3cc4c([nH]3)CCNC4=O)ccn2)ccc1OC(F)(F)F [compound 11],inhibition at 0.01 µM,[1]; 10 nM,1%
same,inhibition at 0.1 µM,[1]; 100 nM,-2%
same,inhibition at 1 µM,[1]; 1000 nM,3%
same,inhibition at 0.01 µM,[2]; 10 nM,16%
same,inhibition at 0.1 µM,[2]; 100 nM,67%
same,inhibition at 1 µM,[2]; 1000 nM,98%
same,inhibition at 0.01 µM,[3]; 10 nM,14%
same,inhibition at 0.1 µM,[3]; 100 nM,33%
same,inhibition at 1 µM,[3]; 1000 nM,83%
